Measured values as given in patent US7342025B2, “Substituted C-imidazo[1,2-a]pyridin-3-yl-methylamines” (Gruenenthal GmbH, priority 2002, dated 2008).

Target: nitrogen monoxide synthase (Rattus norvegicus, UniProt P29476)
Assay: citrulline assay, inhibition of NO synthase
Format: biochemical
Experimental: The IC50 value of each of the example compounds as an inhibitor of NO synthase was determined in a citrulline assay. This assay was carried out as described by D. S. Bredt and S. H. Snyder (Proc. Natl. Acad. Sci. USA (1990), 87, 682-685).

IC50	Structure (SMILES)
4 µM	Cc1ccn2c(CN(C)C)c(C)nc2c1 [Example 1]
2.5 µM	Cc1ccnc(NCc2c(C)nc3cc(C)ccn23)c1 [Example 2, (2,7-Dimethyl-imidazo[1,2-a]pyridin-3-ylmethyl)-(4-methyl-pyridin-2-yl)-amine]
